Test [1] deals with T1, RNA-dependent DNA polymerase activity of HIV reverse transcriptase (Human immunodeficiency virus type 1 group M subtype B, UniProt P04585).
T1 construct: made in house
In words: RNA-dependent DNA polymerase activity assay of HIV reverse transcriptase. The note with it: 10 μM inhibitor concentration, activity with analog / without analog x 100. The format is biochemical, HIV-1. How it is done: In separate, representative assays, mappicine analogs were tested for their ability to inhibit the RNA-dependent DNA polymerase activity of HIV reverse transcriptase and for their ability to inhibit the RNase H activity of HIV reverse transcriptase. The assay for RNA-dependent DNA polymerase activity is discussed in Borkow, G. et al., “Inhibition of the Ribonuclease H and DNA Polymerase Activities of HIV-1 Reverse Transcriptase by N-(4-tert-Butylbenzoyl)-2-hydroxy-1-naphthaldehyde Hydrazone,” Biochemistry 1997, 36, 3179-3185, a copy of which is attached hereto, and the disclosure of which is incorporated herein by reference. Assays were carried out in the absence and in the presence of mappicine analogs (10 μM final concentration). The results are reported as % residual activity, which is the RNA-dependent DNA polymerase activity of the enzyme in the presence of the mappicine analog divided by the RNA-dependent activity of the enzyme in the absence of the mappicine analog, multiplied by 100.

Test [2] addresses RNase H activity of HIV reverse transcriptase (Human immunodeficiency virus type 1 group M subtype B, UniProt P04585). In words: Fluorescence (FRET)-based RNase H activity assay of HIV reverse transcriptase. The following applies: 10 μM inhibitor concentration, activity with analog / without analog x 100. The test is classed as biochemical, HIV-1. Details: final concentration of 2.5 nM of the p51/p66 RT heterodimer in the assay; made in house. How it is done: Recently, a fluorescence-based assay to perform preliminary screens in search of HIV RNase H inhibitors has been developed. The assay, which is carried out in 96-well microplates and is adaptable to robotics, is the first high-throughput screen for RNase H and is described in further detail in the Experimental section. HIV-1 RT and human RNase H were cloned, and thus comparative analysis of inhibitor action could be conducted simultaneously.
The assay for RNase H activity of HIV reverse transcriptase was the fluorescence-based assay described in detail in the Experimental section and discussed in U.S. Provisional Patent Application Serial No. 60/318,359. Assays were carried out in the absence and in the presence of mappicine analogs (10 μM final concentration). The results are reported as % residual activity, which is the RNase H activity of the enzyme in the presence of the mappicine analog divided by the RNase H activity of the enzyme in the absence of the mappicine analog, multiplied by 100. Alternatively, the results are reported as % inhibition, which is calculated as the ratio of the RNase H activity of the enzyme in the presence of the mappicine analog to the enzyme activity in the absence of the mappicine analog, multiplied by 100, and then subtracting this number from 100.
Assay for Ribonuclease H Activity Based on Fluorescence Resonance Energy Transfer (FRET)
Preparation of the Fluorophore-RNA/Quencher-DNA Hybrid Duplex Substrate.
The RNA/DNA hybrid duplex substrate for use in the assay comprises an RNA oligonucleotide of sequence 5′-GAU CUG AGC CUG GGA GCU-3′, modified at the 3′-end with Aminolink-2 and derivatized with fluorescein isothiocyanate, to provide a modified RNA oligonucleotide of the sequence 5′-GAU CUG AGC CUG GGA GCU-fluorescein-3′, annealed to a complementary DNA oligonucleotide of the sequence 5′-AGC TCC CAG GCT CAG ATC-3′ modified at the 5′-end with Aminolink-2 and derivatized with the FRET acceptor DABCYL succinimidyl ester, to provide a modified DNA oligonucleotide of the sequence 5′-DABCYL-AGC TCC CAG GCT CAG ATC-3′.
To prepare the 3′-fluorescein-RNA/5′-DABCYL-DNA hybrid duplex substrate, a known amount of 3′-fluorescein-RNA was dissolved in 20 mM Tris buffer (pH 8.0, 37° C.) to provide a final concentration of 5 μM. Two equivalents of the 5′-DABCYL-DNA oligonucleotide were added, and the mixture was heated to 90° C. for 5 min and cooled slowly to room temperature to allow duplex formation. The positioning of the fluorescein donor at the 3′-end of the RNA oligonucleotide and the DABCYL acceptor at the 5′-end of the DNA oligonucleotide provides a very close proximity of the donor and acceptor that results in a very intense quenching of the fluorescein emission in the intact RNA/DNA hybrid duplex substrate due to the spectral overlap of the fluorescence emission of fluorescein with the absorption spectrum of DABCYL. In addition, DABCYL is non-fluorescent, and thus cannot contribute any light emission. Both of these factors result in a very low background and provide a high signal-to-noise in the assay measurements. The ratio of the donor fluorescence in the absence and in the presence of its quencher is approximately fifteen-fold.
Microplate Assay Protocol for the Measurement of RNase H Activity Using the RNA/DNA Hybrid Duplex Substrate.
Reaction assay mixtures contained 5 μl of a stock solution of 2.5 μM RNA/DNA hybrid duplex substrate added to 85 μl of assay buffer (50 mM Tris, pH 8.0, 37° C., containing 60 mM KCl and 2.5 mM MgCl2), prepared in the wells of a 96-well fluorescence microtiter plate, and warmed to 37° C. using the temperature control of the SpectraMax Gemini XS microplate spectrofluorometer (Molecular Devices). Reactions were started by the addition of 5 μl of a solution of recombinant HIV-1 reverse transcriptase (usually providing a final concentration of 2.5 nM of the p51/p66 RT heterodimer in the assay), and mixing using the automatic mixing function of the microplate spectrofluorometer. […]

From US20040058948A1, “Mappicine analogs, methods of inhibiting retroviral reverse transcriptase and methods of treating retroviruses” (priority 2002, published 2004) come the findings set out here.

Values joined by “and” are separate entries in the source; they are usually repeats but may differ in a detail not shown here. Equal values may be shown once.

Turning to `Cc1c(C(=O)CCC2CCCCC2)cc2n(c1=O)Cc1c-2nc2ccccc2c1[Si](C)(C)C(C)(C)C` [4Aδκ], in test [1], the “Residual activity (%) Polymerase” value was 39%. Moreover, the “Residual activity (%) RNase H” value in test [2] was 102%.
The corresponding values for `CCC(=O)c1cc2n(c(=O)c1C)Cc1c-2nc2ccc(F)cc2c1[Si](C)(C)C(C)(C)C` [4Bακ] are 42% and 77%.
The corresponding values for `Cc1c(C(=O)C(C)(C)C)cc2n(c1=O)Cc1c-2nc2ccc(F)cc2c1[Si](C)(C)C(C)(C)C` [4Bβκ] are 82% and 79%.
For `Cc1c(C(O)CCC2CCCCC2)cc2n(c1=O)Cc1c-2nc2ccc(F)cc2c1[Si](C)(C)C(C)(C)C` (stereo not shown) [4Bδ] the same measures were 44% and 90%.
Take `Cc1c(C(=O)CCC2CCCCC2)cc2n(c1=O)Cc1c-2nc2ccc(F)cc2c1[Si](C)(C)C(C)(C)C` [4Bδκ]: the “Residual activity (%) Polymerase” value in test [1] turned out to be 56%. In addition, in test [2], the “Residual activity (%) RNase H” value came to 96%.
The corresponding values for `Cc1c(C(O)Cc2ccccc2)cc2n(c1=O)Cc1c-2nc2ccc(F)cc2c1[Si](C)(C)C(C)(C)C` (stereo not shown) [4Bε] are 61% and 89%.
For `CCC(O)c1cc2n(c(=O)c1C)Cc1c-2nc2ccc(C)cc2c1[Si](C)(C)C(C)(C)C` (stereo not shown) [4Cα] the same measures were 94% and 91%.
The corresponding values for `CCC(=O)c1cc2n(c(=O)c1C)Cc1c-2nc2ccc(C)cc2c1[Si](C)(C)C(C)(C)C` [4Cακ] are 52% and 90%.
With `Cc1ccc2nc3c(c([Si](C)(C)C(C)(C)C)c2c1)Cn1c-3cc(C(O)C(C)(C)C)c(C)c1=O` (stereo not shown) [4Cβ], the “Residual activity (%) Polymerase” value in test [1] amounted to 67%. Besides, the “Residual activity (%) RNase H” value in test [2] was 94%.
Turning to `Cc1ccc2nc3c(c([Si](C)(C)C(C)(C)C)c2c1)Cn1c-3cc(C(=O)C(C)(C)C)c(C)c1=O` [4Cβκ], in test [1], the “Residual activity (%) Polymerase” value is given as 67%. For the same molecule, the “Residual activity (%) RNase H” value in test [2] amounted to 65%.
For `Cc1ccc2nc3c(c([Si](C)(C)C(C)(C)C)c2c1)Cn1c-3cc(C(=O)CCC2CCCCC2)c(C)c1=O` [4Cδκ] the same measures were 52% and 96%.
As to `CCC(O)c1cc2n(c(=O)c1C)Cc1c-2nc2ccc(OC)cc2c1[Si](C)(C)C(C)(C)C` (stereo not shown) [4Dα], the “Residual activity (%) Polymerase” value in test [1] came out at 77%. The “Residual activity (%) RNase H” value in test [2] was 79%.
As for `CCC(=O)c1cc2n(c(=O)c1C)Cc1c-2nc2ccc(OC)cc2c1[Si](C)(C)C(C)(C)C` [4Dακ], the “Residual activity (%) Polymerase” value in test [1] worked out at 80%. Besides, the “Residual activity (%) RNase H” value in test [2] is 77%.
In the case of `COc1ccc2nc3c(c([Si](C)(C)C(C)(C)C)c2c1)Cn1c-3cc(C(=O)CCC2CCCCC2)c(C)c1=O` [4Dδκ], the “Residual activity (%) Polymerase” value in test [1] (10 µM) is 50% and 64%. For the same molecule, the “Residual activity (%) RNase H” value in test [2] (10 µM) is 83% and 97%.
Take `CCC(O)c1cc2n(c(=O)c1C)Cc1c-2nc2ccccc2c1[Si](C)(C)C` (stereo not shown) [5Aα]: the “Residual activity (%) Polymerase” value in test [1] (10 µM) came out at 32%. In addition, the “Residual activity (%) RNase H” value in test [2] (10 µM) was found to be 93%.
Take `CCC(=O)c1cc2n(c(=O)c1C)Cc1c-2nc2ccccc2c1[Si](C)(C)C` [5Aακ]: the “Residual activity (%) Polymerase” value in test [1] came to 91%. In test [2], the “Residual activity (%) RNase H” value was determined as 103%.
For `Cc1c(C(=O)C(C)(C)C)cc2n(c1=O)Cc1c-2nc2ccccc2c1[Si](C)(C)C` [5Aβκ] the same measures were 47% and 97%.
For the molecule `Cc1c(C(=O)CCC2CCCCC2)cc2n(c1=O)Cc1c-2nc2ccccc2c1[Si](C)(C)C` [5Aδκ], the “Residual activity (%) Polymerase” value in test [1] is on record as 90%. Moreover, the “Residual activity (%) RNase H” value in test [2] is given as 75%.
The corresponding values for `CCC(O)c1cc2n(c(=O)c1C)Cc1c-2nc2ccc(F)cc2c1[Si](C)(C)C` (stereo not shown) [5Bα] are 82% and 105%.
The corresponding values for `CCC(=O)c1cc2n(c(=O)c1C)Cc1c-2nc2ccc(F)cc2c1[Si](C)(C)C` [5Bακ] are 74% and 89%.
For the molecule `Cc1c(C(=O)C(C)(C)C)cc2n(c1=O)Cc1c-2nc2ccc(F)cc2c1[Si](C)(C)C` [5Bβκ], in test [1], the “Residual activity (%) Polymerase” value turned out to be 63%. For the same molecule, the “Residual activity (%) RNase H” value in test [2] amounted to 100%.
With `Cc1c(C(=O)CCC2CCCCC2)cc2n(c1=O)Cc1c-2nc2ccc(F)cc2c1[Si](C)(C)C` [5Bδκ], the “Residual activity (%) Polymerase” value in test [1] stood at 46%. In addition, the “Residual activity (%) RNase H” value in test [2] amounted to 78%.
With `Cc1c(C(O)Cc2ccccc2)cc2n(c1=O)Cc1c-2nc2ccc(F)cc2c1[Si](C)(C)C` (stereo not shown) [5Bε], the “Residual activity (%) Polymerase” value in test [1] is 49%. Further, in test [2], the “Residual activity (%) RNase H” value amounted to 88%.
For `CCC(O)c1cc2n(c(=O)c1C)Cc1c-2nc2ccc(C)cc2c1[Si](C)(C)C` (stereo not shown) [5Cα], the “Residual activity (%) Polymerase” value in test [1] was found to be 68%. Further, the “Residual activity (%) RNase H” value in test [2] came out at 62%.
`CCC(=O)c1cc2n(c(=O)c1C)Cc1c-2nc2ccc(C)cc2c1[Si](C)(C)C` [5Cακ]: in test [1], the “Residual activity (%) Polymerase” value came out at 93%. For the same molecule, the “Residual activity (%) RNase H” value in test [2] stood at 109%.
On to `Cc1ccc2nc3c(c([Si](C)(C)C)c2c1)Cn1c-3cc(C(=O)C(C)(C)C)c(C)c1=O` [5Cβκ], for which the “Residual activity (%) Polymerase” value in test [1] was found to be 76%. Also, in test [2], the “Residual activity (%) RNase H” value came out at 92%.
As for `Cc1ccc2nc3c(c([Si](C)(C)C)c2c1)Cn1c-3cc(C(=O)CCC2CCCCC2)c(C)c1=O` [5Cδκ], in test [1], the “Residual activity (%) Polymerase” value was 59%. Moreover, in test [2], the “Residual activity (%) RNase H” value is 99%.
For `CCC(=O)c1cc2n(c(=O)c1C)Cc1c-2nc2ccc(OC)cc2c1[Si](C)(C)C` [5Dακ] the same measures were 50% and 86%.
For `COc1ccc2nc3c(c([Si](C)(C)C)c2c1)Cn1c-3cc(C(O)C(C)(C)C)c(C)c1=O` (stereo not shown) [5Dβ] the same measures were 76% and 102%.
For `COc1ccc2nc3c(c([Si](C)(C)C)c2c1)Cn1c-3cc(C(=O)C(C)(C)C)c(C)c1=O` [5Dβκ] the same measures were 64% and 86%.
Consider `COc1ccc2nc3c(c([Si](C)(C)C)c2c1)Cn1c-3cc(C(O)CCC2CCCCC2)c(C)c1=O` (stereo not shown) [5Dδ], for which the “Residual activity (%) Polymerase” value in test [1] came to 57%. For the same molecule, the “Residual activity (%) RNase H” value in test [2] was determined as 96%.
`COc1ccc2nc3c(c([Si](C)(C)C)c2c1)Cn1c-3cc(C(=O)CCC2CCCCC2)c(C)c1=O` [5Dδκ]: the “Residual activity (%) Polymerase” value in test [1] was 40%. In addition, the “Residual activity (%) RNase H” value in test [2] was determined as 92%.
